Reference: patent US20120184625A1, “METHODS AND COMPOSITIONS FOR CONTROLLING PESTS” (priority 2001, published 2012)

Assays:
[1] = tested on: Two spotted mite (TSM) Tetranychus urticae Koch; test: TSM leaf disc bioassay, Potter spray tower; type: in vivo; parameters: LD50 and 95% CL: unit not given beside the values; conditions: for LD50 and 95% CL: in vivo
Protocol: Two spotted mite (TSM) Tetranychus urticae Koch [Acarina: Tetranychidae] were collected from a mass culture maintained at the University of Western Sydney's Hawkesbury Campus in Richmond, NSW, Australia. They were reared on potted French beans (Phaseolus vulgaris L [Fabales: Fabaceae] in a glasshouse maintained at 25±5° C., 65±5% RH and 14 h D:L photoperiod. Only young females were selected for bioassay.
From an E. cloeziana oil extract (containing 85% tasmanone), 1.1765 g was dissolved in 5 mL ethyl alcohol and distilled water containing 200 ppm Triton X-100™ was added to prepare a 1% stock solution. From this homogenised stock solution, further serial dilutions of 0.0125, 0.025, 0.05, 0.10, and 0.12% were prepared by mixing the required amount of stock solution in distilled water and Triton X-100 solution. Each treatment was conducted on 60-80 TSM, which were evenly distributed on four French bean leaf discs (25 mm diam) contained in 90 mm diam. petri dishes. The leaf discs were placed with their underside uppermost on moist absorbent cotton wool covered with muslin netting. Water was added to the dishes daily to prevent desiccation of the leaf discs. Five mL aliquots (unless otherwise stated) were applied to each petri dish with a Potter precision spray tower as described by Herron et al (1995). The average mass of solution applied to each dish was calculated to be 3.95 mg/cm^2. Mortality was recorded 24 h after treatment. Death was recognised by the absence of movement when the test organisms were mechanically stimulated. Data were analysed using SPSS for Windows™ Version 7. Probit analysis was carried out for dose-mortality data and heterogeneity of regressions was determined by the Pearson chi-squared characteristic.
In addition, TSM was treated with E. cloeziana oil extract in combination with paraffin oil. In particular, E. cloeziana oil extract at levels of 0.1, 0.2, 0.3, 0.4 and 0.5 g were weighed out and each was made up to a weight of 10.0 g with a formulated paraffin oil (BioPest®), which was then sonicated for 10 min. A 1.0% v/v of each blend was prepared by mixing 1.0 mL with distilled water in a 100.0 mL volumetric flask. TSM were transferred to the petri dish following the same standard method. Five-mL aliquots were applied to each petri dish and mortality was recorded 24 h after treatment. All blends of E. cloeziana oil extract with paraffin oil produced 100.0% mortality, compared with Biopest® alone which caused only 35.5±6.9 mortality.
The efficacy of purified β-triketones against TSM was investigated using the TSM bioassay described in Example 8.

[2] = tested on: greenhouse thrips (GHT), Heliothrips haemorrhoidalis Bouché; test: Greenhouse thrips bioassay on lemon leaf discs, Potter spray tower; type: in vivo
Protocol: Adult parthenogenetic female greenhouse thrips (GHT), Heliothrips haemorrhoidalis Bouché (Thysanoptera: Thripidae) of similar age were obtained from a colony reared on orange fruits and maintained in an insectary at UWS Hawkesbury under conditions of 25±3° C., 65% RH and 16 h D:L photoperiod
The same experimental procedure used for TSM was repeated for GHT except that lemon leaf discs were used instead of French beans. The required number of adult thrips for each treatment was transferred with a fine brush to the underside of a lemon disc of the same diameter (6 cm) as the base of a petri dish. The lemon disc was mounted on agar with its adaxial side uppermost. Immediately after treatment the petri dish was covered with perforated plastic wrap. […]
The efficacy of purified β-triketones against GHT was investigated using the GHT bioassay described in Example 8.
All β-triketones except jensenone caused 100% mortality on GHT at a concentration of 0.3% when 5 mL aliquots were applied with a Potter spray tower.

CC(=O)C1=C(O)C(C)CC(C)(C)C1=O (stereo not drawn) [Angustione, 1-acetyl-3,5,5-trimethylcyclohex-2,6-dione]
LD50 and 95% CL [1]: 0.22 (0.21-0.24)

CC(=O)C1=C(O)C(C)(C)C=C(C)C1=O [Dehydroangustione, 1-acetyl-3,5,5-trimethylcyclohex-3-en-2,6-dione]
LD50 and 95% CL [1]: 0.36 (0.33-0.41)

CC1(C)C(=O)C(CCc2ccccc2)C(=O)C(C)(C)C1=O [Grandiflorone, 1-(2-phenylethyl)-3,3,5,5-tetramethylcyclohexan-2,4,6-trione]
LD50 and 95% CL [1]: 0.04

CC(C)CC(=O)C1C(=O)C(C=O)C(=O)C(C=O)C1=O (stereo not drawn) [Jensenone]
behavioural effect on treated TSM ([1]; TSM, 0.05-0.4%): to move normally and continued to convulse
recovery of treated TSM ([1]; TSM, 0.05-0.4%): treatment. There was no recovery.
time after treatment at which TSM commenced to die ([1]; TSM, 0.05-0.4%): until they commenced to die 72 h after
direct mortality within 24 h ([1]; TSM, any concentration tested (0.05-0.4%)): No direct mortality occurred in any
mortality ([2]; 72 h after application in the 0.4% treatment): 60.0%
behavioural effects ([2]; all concentrations tested): Convulsion and lack of movement
direct mortality within 24 h ([2]; all concentrations tested): did not cause direct mortality

COC1=CC(=O)C(C(C)=O)C(=O)C1(C)C (stereo not drawn) [Platyphyllol, 6,6-dimethyl-2-acetyl-5-methoxycyclohex-4-ene-1,3-dione]
LD50 and 95% CL [1]: 0.070

COC1=C(C)C(=O)C(C(=O)C(C)C)C(=O)C1(C)C (stereo not drawn) [Tasmanone, 1-isobutroyl-4-methoxy-3,5,5-trimethylcyclohex-3-en-2,6-dione]
LD50 and 95% CL [1]: 0.055
